Data: patent publication US20200362309A1, “Method for preparing BAP or BA cells” (Anagenesis Biotechnologies S.A.S., priority 2017, published 2020)

System: BA cells differentiated from hiPS-derived BAP
Test: Lipolysis: free glycerol release by BA cells after forskolin stimulation
Type: cell-based, human
Settings: forskolin 10 μM, 24 hours; BAP derived at day 12 or 16, 5 passages, differentiated for 17 days
Procedure: Lipolysis: The BAP were differentiated for 17 days. Then the cells were maintained for 24 hours in DMEM 1g/Iglucose supplemented with BSA 0,2%. Lipolysis was stimulated with forskolin (10 μM) for 24 hours.

C=C[C@@]1(C)CC(=O)[C@]2(O)[C@@]3(C)[C@@H](O)CCC(C)(C)[C@@H]3[C@H](O)[C@H](OC(C)=O)[C@@]2(C)O1 [forskolin]
increase of the free glycerol released, treated cells compared to untreated cells: about 60%
